In patent publication US12655104B2, “Anticancer compounds selective for ER-positive cancers” (THE BOARD OF TRUSTEES OF THE UNIVERSITY OF ILLINOIS, priority 2020, dated 2026):
Where two headings read alike, the source gives them in different places.

Legend:
MCF-7 cells = experiment: Alamar blue fluorescence viability (IC50), MCF-7; assay type: cell-based; details: for IC50: Homo sapiens, MCF7
Protocol: (§1) Cancer Cell Lines: Culturing Conditions and Validation. All cell lines were cultured at 37° C. with 5% CO2. All ERα-positive cell lines were grown in media lacking phenol red. MCF-7 were grown in EMEM with 10% FBS and 1% penicillin-streptomycin (P/S). T47D were cultured in MEM with 10% FBS and 1% P/S. TYS and TDG cells were grown in MEM supplemented with 10% CD-FBS and 1% P/S. HCT-116 and MDA-MB-231 cells were cultured in RPMI-1640 supplemented with 10% FBS and 1% P/S. MDA-MB-436 cells were cultured in DMEM supplemented with 10% FBS and 1% P/S. HT-29 were cultured in McCoy's media supplemented with 10% FBS and 1% P/S. All cell lines were used directly from ATCC stocks and/or have been further authenticated using PowerPlex16HS Assay (Promega) as described previously.^54 In short, >1 million cells were harvested and lysed using the cell lysis buffer (50 mM Tris, 50 mM EDTA, 25 mM sucrose, 100 mM NaCl, 1% SDS, pH 8). DNA extraction and short tandem repeats (STRs) profiling for each cell line were carried out at the University of Arizona Genetics Core (UAGC). Autosomal STR profiles were compared to reference databases such as ATCC, DSMZ, and JCRB.
(§2) Alamar Blue Fluorescence for Anticancer Activity (IC50). 2,000-15,000 cells per well were seeded a 96-well plate. Cells were allowed to adhere before DMSO stock solutions of test compounds were added to each well with a final concentration of DMSO in each well=1%; final volume: 100 μL. At the end of the desired incubation time (e.g., 24 or 72 hours), media in each well was aspirated and new fresh media (no compound, 100 μL) was added. Alamar blue solution (4 mg resazurin per 40 mL PBS) was then added (10 μL). After 2-6 hours incubation, each well's fluorescence (λexcit.=555 nm, λemission.=585 nm) was measured using a SpectraMax M3 plate reader (Molecular Devices). Percent dead was determined by comparison to a 100% dead control: 100 μM raptinal treated cells. Dose dependent curves and IC50 were calculated using Origin Pro V10.

[1] = test system: anticipatory unfolded protein response (a-UPR); experiment: a-UPR immunoblotting/western blot in MCF-7 cells; assay type: cell-based
Protocol: a-UPR Immunoblotting/Western Blot Procedure. 400,000 MCF-7 cells/per well were seeded into 6 or 12 well plates and allowed to adhere overnight. Media was then aspirated from each well and then fresh media with diluted test compound (0.1% DMSO concentration) was added accordingly. Cells were incubated for 4 or 6 hours, then harvested. PBS-washed cell pellets were then lysed using RIPA buffer containing phosphatase (BioVision) and protease inhibitor cocktail (Calbiochem). Protein concentrations were determined using the BCA assay (Pierce). Lysates containing 10-15 μg of protein were loaded onto 4-20% gradient gels (BioRad), and SDS-PAGE was run. Proteins were then transferred onto membrane (PDVF Millipore) and blots blocked with BSA solution (2 g in 40 mL TBST) for one hour. After blocking, primary antibody was added and incubated overnight (using manufacturer's recommended dilutions). Following overnight incubation, blots were washed with TBST (5-minute incubation for each wash, washed 3 times), then incubated with HRP-linked secondary antibody for 1 hour in TBST. Blots were washed (10-minute incubation for each wash for a total of two ten-minute washes). SuperSignal West Pico Solution was then added following manufacturer's procedures and blots imaged with ChemiDoc.
Antibodies. […]

[2] = Simulated gastric fluid (SGF) stability assay; assay type: in vitro ADME; details: for half-life at 100 μM: simulated gastric fluid with pepsin, pH 1.2
Protocol: Simulated Gastric Fluid (SGF) Stability Assay. SGF was prepared fresh by adding 3.2 g pepsin (Sigma Aldrich P7000) to 1000 mL of SGF (Fischer Scientific 7108-16) and the pH adjusted to 1.2 using a pH meter. This SGFwith pepsin solution was then warmed to 37° C. 990 μL of warmed SGFwith pepsin was then aliquoted into multiple Eppendorf tubes, followed by 10 μL of 10 mM DMSO stock solutions of test compounds. Erythromycin (MedChemExpress HY-B0220) is a positive control for this stability assay. Samples were incubated at 37° C. for the entire experiment with vortexing every 15 minutes. At each desired time point (0, 15, 30, 60, 120 minutes), a 100 μL aliquot is removed and quenched into 50 μL of acetonitrile. Samples are stored at 4° C. until all time points are complete. Samples were then vortexed and then clarified at 3,000 RPM for 10 minutes in a 4° C. centrifuge. Supernatants were collected and compound concentrations determined by LC-MS/MS (UIUC Metabolomics Center, Urbana, IL.). Determined compound concentrations were used to calculate percent remaining compared to t=0 samples.

ERα− cancer cell lines = experiment: Selectivity of cell killing, ERα+ versus ERα− cancer cell lines; assay type: cell-based; details: MDA-MB-231, HCT-116, HT-29; for potencies against ERα− cancer cell lines (in words): 24- and 72-hour incubations
Protocol: as §1, §2

MDA-MB-231 = experiment: Alamar blue fluorescence viability (IC50), MDA-MB-231; assay type: cell-based; details: Homo sapiens, MDA-MB-231, ERα negative
Protocol: as §1, §2

HT-29 = experiment: Alamar blue fluorescence viability (IC50), HT-29; assay type: cell-based; details: Homo sapiens, HT-29, ERα negative
Protocol: as §1, §2

T47D = experiment: Alamar blue fluorescence viability (IC50), T47D; assay type: cell-based; details: Homo sapiens, 24 h, read-out: IC50 24 hr (μM)
Protocol: as §1, with “DNA extraction and short tandem repeats (STRs) profiling for each cell line were carried out at the University of Arizona Genetics Core (UAGC). Autosomal STR profiles were compared to reference databases such as ATCC, DSMZ, and JCRB.” left out
(§3) Alamar Blue Fluorescence for Anticancer Activity (IC50). […] After 2-6 hours incubation, each well's fluorescence (λexcit.=555 nm, λemission.=585 nm) was measured using a SpectraMax M3 plate reader (Molecular Devices). Percent dead was determined by comparison to a 100% dead control: 100 μM raptinal treated cells. Dose dependent curves and IC50 were calculated using Origin Pro V10.

[3] = Pharmacokinetic (PK) studies in mice; assay type: in vivo
Protocol: Pharmacokinetic (PK) Studies. […] Mice were then sacrificed in cohorts of 3 at time points (#, #, #). Blood was collected, centrifuged, and plasma separated for quantification of test compound utilizing LC-MS/MS (UIUC Metabolomics Center, Urbana, IL.). Determined compound concentration was then analyzed using non-linear regression programing (WinNonlin) and pharmacokinetic parameters estimated.

MDA-MB-436 = experiment: Alamar blue fluorescence viability (IC50), MDA-MB-436; assay type: cell-based; details: Homo sapiens
Protocol: as §1, §2

HCT-116 = experiment: Alamar blue fluorescence viability (IC50), HCT-116; assay type: cell-based; details: for IC50: Homo sapiens, HCT-116, ERα negative
Protocol: as §1, §2

T47D-ERαD538G (TDG) = experiment: Alamar blue fluorescence viability (IC50), TDG; assay type: cell-based; details: TDG, ERα positive, 24 hr; read-out: IC50 24 hr
Protocol: as §1, with “DNA extraction and short tandem repeats (STRs) profiling for each cell line were carried out at the University of Arizona Genetics Core (UAGC). Autosomal STR profiles were compared to reference databases such as ATCC, DSMZ, and JCRB.” left out
as §3

MCF-7 tumors = experiment: MCF-7 orthotopic tumor model; assay type: in vivo, mice; details: I.V. 5 mg/kg once-a-week, three total doses
Protocol: MCF-7 Orthotopic Tumor Model. Nu/J ovariectomized mice (Jackson's lab) were supplemented with a 60-day E2 pellet (0.36 mg, Innovative Research of America) 2-3 days prior to tumor cell inoculation. MCF-7 cells (5×10^6, in 1:1 HBSS:matrigel) were inoculated into the mammary fat pad and allowed to establish and tumors grown to ˜300-400 mm^3 (˜21-28 days to establish). […] Tumor size was measured by caliper, and mouse weights were recorded.

canines = details: cited from earlier work
[4] = Maximum tolerated dose (MTD) in rats; assay type: in vivo; details: Sprague Dawley, rat, in vivo, iv
Source text: (§4) Maximum Tolerated Dose (MTD) Experiments in Mice and Rats. […] Rodents were monitored for signs of distress, lethargy, neurotoxicity, and so forth for multiple days after compound administration. […] The MTD was defined as the maximum dose in which any acute side effects observed were tolerated and no lethality observed.

[5] = Maximum tolerated dose (MTD) in mice; assay type: in vivo; details: female, CD-1, mouse, in vivo, iv
Source text: as §4

T47D-ERaY537S (TYS) = experiment: Alamar blue fluorescence viability (IC50), TYS; assay type: cell-based; details: 24 h, read-out: IC50 24 hr (μM)
Protocol: as §1, with “DNA extraction and short tandem repeats (STRs) profiling for each cell line were carried out at the University of Arizona Genetics Core (UAGC). Autosomal STR profiles were compared to reference databases such as ATCC, DSMZ, and JCRB.” left out
as §3

[6] = In vitro metabolite assessment of ErSO; assay type: in vitro ADME
[7] = test system: CD Sprague Dawley IGS rats; experiment: Maximum tolerated dose (MTD) in rats; assay type: in vivo; details: rat, in vivo
Source text: as §4

CD-1 mice = experiment: Maximum tolerated dose (MTD) in mice; assay type: in vivo; details: mouse, in vivo, iv
Source text: as §4

[8] = 100 μM in SGF with pepsin, one-phase decay, read-out: t1/2 (min) (95% CI)
[9] = female, CD-1, mouse, plasma, iv, I.V. 20 mg/kg
[10] = MCF-7 cells, 24 hours, Alamar blue, mean ± s.e.m., read-out: IC50

## O=C1Nc2c(C(F)(F)F)cccc2[C@]1(c1ccc(O)cc1)N1CCC(F)(F)CC1 (single isomer, unassigned) [(S)-2]
MCF-7 cells; MCF-7 cells
  anticancer activity against MCF-7 cells (in words): devoid of any activity
[1]
  a-UPR activation (P-AMPK, P-EIF2α, cleavage of ATF6α p90), western blot: No activation of the a-UPR

## O=C1Nc2c(C(F)(F)F)cccc2[C@@]1(c1ccc(O)cc1)N1CCC(F)(F)C1 [(R)-24, (R)-3-(3,3-difluoropyrrolidin-1-yl)-3-(4-hydroxyphenyl)-7-(trifluoromethyl)indolin-2-one]
[2]; 100 μM in SGF with pepsin
  % Remaining after 120 min (SD): 20±1%
[2]; [8]
  half-life at 100 μM: 62 min
ERα− cancer cell lines
  potencies against ERα− cancer cell lines (in words): double-digit micromolar

## O=C1Nc2c(C(F)(F)F)cccc2[C@@]1(c1ccc(O)cc1)N1CC(F)(F)C(F)(F)C1 [Compound (R)-26, (R)-3-(4-hydroxyphenyl)-3-(3,3,4,4-tetrafluoropyrrolidin-1-yl)-7-(trifluoromethyl)indolin-2-one]
[2]; 100 μM in SGF with pepsin
  % Remaining after 120 min (SD): 27±1%
[2]; [8]
  half-life at 100 μM: 77 min
MCF-7 cells; MCF-7, 24 and 72 hr, read-out: IC50 values
  IC50: 4 to 5 nM
ERα− cancer cell lines
  fold change MCF-7 versus ERα− cell lines: ≥ 3500
  potencies against ERα− cancer cell lines (in words): double-digit micromolar

## O=C1Nc2c(C(F)(F)F)cccc2[C@@]1(c1ccc(O)cc1)c1ccc(OC(F)(F)F)cc1 [ErSO, (R)-3-(4-hydroxyphenyl)-3-(4-(trifluoromethoxy)phenyl)-7-(trifluoromethyl)indolin-2-one, reference compound]
MDA-MB-231; 24 hr, read-out: IC50 24 hr
  IC50: 23000 ± 3000 nM
MDA-MB-231; 72 hr, read-out: IC50 72 hr
  IC50: 8000 ± 1000 nM
HT-29; 24 hr, read-out: IC50 24 hr
  IC50: 210 ± 60 nM
HT-29; 72 hr, read-out: IC50 72 hr
  IC50: 250 ± 70 nM
T47D
  IC50: 0.02 ± 0.001 µM
[3]; I.V. 20 mg/kg
  CL: 33 mL/min/kg
[3]; [9]
  AUC: 10100 ng·h/mL
  Cmax: 7710 ng/mL
[3]; female, CD-1, mouse, plasma, iv, I.V. 20 mg/kg, read-out: Vss
  Vd: 10.2 L/kg
[3]; female, CD-1, mouse, plasma, po, read-out: oral availability F %
  bioavailability: 47%
MDA-MB-436; MDA-MB-436, 24 h, read-out: IC50 24 hr (μM)
  IC50: 22 ± 1 µM
MDA-MB-436; MDA-MB-436, 72 h, read-out: IC50 72 hr (μM)
  IC50: 14 ± 1 µM
HCT-116; HCT-116 cells, bottom of IC50 curve
  effects bottom out at (% cell death at lower concentrations): ~38%
HCT-116; 24 hr, read-out: IC50 24 hr
  IC50: 11000 nM
HCT-116; 72 hr, read-out: IC50 72 hr
  IC50: 260 nM
[2]; 100 μM in SGF with pepsin
  % Remaining after 120 min (SD): 93±1%
[2]; SGF with pepsin, read-out: half-life in SGF
  half-life at 100 μM: > 120 min
T47D-ERαD538G (TDG)
  IC50: 15 ± 1 nM
MCF-7 tumors
  mouse weight change during MCF-7 study: no significant weight change
MCF-7 cells; MCF-7, ERα positive, 24 hr, read-out: IC50 24 hr
  IC50: 20 ± 2 nM
MCF-7 cells; MCF-7, ERα positive, 72 hr, read-out: IC50 72 hr
  IC50: 14 ± 1 nM
MCF-7 cells; [10]
  IC50: 20 nM
canines
  tolerated oral dose: greater than 150 mg/kg
[4]
  MTD: 10 to 15 mg/kg
[5]
  MTD: 20 mg/kg
T47D-ERaY537S (TYS)
  IC50: 0.01 ± 0.001 µM

## O=C1Nc2c(C(F)(F)F)cccc2[C@]1(c1ccc(OC(F)(F)F)cc1)c1ccc(O)c(O)c1 [ErSO-OH, (S)-3-(3,4-dihydroxyphenyl)-3-(4-(trifluoromethoxy)phenyl)-7-(trifluoromethyl)indolin-2-one]
[6]
  abundance as metabolite of ErSO: < 1%
MCF-7 cells; [10]
  IC50: 24 nM
[7]
  rat tolerability (in words): no gains in rat tolerability
CD-1 mice
  intravenous tolerability in mice (in words): greater intravenous tolerability in mice
